Measured values from patent US8969573B2, “Compounds for the inhibition of cellular proliferation” (President and Fellows of Harvard College, priority 2010, dated 2015).
Like-named read-outs stand apart in the source and are kept apart here.

Key:
[1] = biological target: eIF4E/eIF4G interaction (Homo sapiens, UniProt P06730); assay: Fluorescent polarization assay; type: binding; settings: FITC eIF4G peptide and recombinant eIF4E, ratio to Z (4EGI-1 = 1)
Method: The difference between the two measurement yields net polarization which is considered full signal of the assay (100% control). […] The activity of compound at each concentration is determined by comparing the fluorescent polarization (FP) signal in the presence of compound to the control (no compound) value. The percent inhibition is =100-((FP compound/FP control)*100).

[2] = system: CRL2813 human melanoma; assay: SRB assay (inhibition of cell proliferation); type: cell-based
Description: (§1) A sulfur rhodamine B (SRB) assay was used to determine the extent of inhibition of cell proliferation as a measure of the anti-cancer activity of compounds of the present disclosure. The reagent SRB binds to cellular proteins and absorbs light proportionally to the cellular protein content, which is a surrogate marker for the number of cells. According to aspects of the present disclosure, the assay can be used to with any cancer cell line including breast cancer cell lines, prostate cancer cell lines, melanoma cell lines, lung cancer cell lines or any other cell lines of the cancers described herein.
(§2) The following protocol was used to determine the growth characteristics of certain cell lines CRL2351 human breast cancer and CRL2813 human melanoma from which cell lines having doubling times less than 48 hours were selected for growth inhibition experiments. […] The following materials were used in addition to the cancel cell lines: complete (5% fetal calf serum added) tissue culture media, 96-well tissue culture plates, Sulforhodamine B dye (SRB, 0.57% w/w), […] (TCA, 10%), acetic acid glacial (1%) and 10 mM Tris base. The cells were prepared and plated. Cancer cells were grown to 80% confluency in an incubator. The cells were trypsinized per standard protocol or as needed for each cell line. The trypsin was neutralized, cells dissociated and counted. Each cell line was plated at a density of 500, 1000 and 3000 cells per well (six wells each) in five separate plates. The cells were then returned to the incubator. One plate was then removed each day starting day one after plating. 100 μl of 10% TCA was then added and the cells were fixed at 4° C. until all the cells were fixed. […] The cell growth for vehicle treatment is considered to be 100%. The optical density was then measured and plotted for each starting cell number and cell line against time. The percent cell growth inhibition was calculated as 100 minus the % of control cell growth. The % of control cell growth=((mean OD sample−Mean OD day 0)/(mean OD vehicle−Mean OD day 0))*100.

[3] = system: CRL2351 human breast cancer; assay: SRB assay (inhibition of cell proliferation); type: cell-based; settings: CRL2351 human breast cancer cells
Description: as §1, §2

[4] = Homo sapiens, CRL2813, CRL2813 human melanoma cells, summary table, read-out: IC50 [μM} CRL2813
[5] = Homo sapiens, summary table, read-out: IC50 [μM} CRL2351
[6] = CRL2813 human melanoma cells, summary table, read-out: IC50 [μM} CRL2813
[7] = summary table, read-out: IC50 [μM} CRL2351
[8] = Homo sapiens, CRL2813, CRL2813 human melanoma cells, Tables 1, 4, 5, read-out: SRB-IC50 (μM) 2813
[9] = Homo sapiens, Tables 1, 4, 5, read-out: SRB-IC50 (μM) 2351

Chain of eIF4E/eIF4G interaction (P06730 whole entry): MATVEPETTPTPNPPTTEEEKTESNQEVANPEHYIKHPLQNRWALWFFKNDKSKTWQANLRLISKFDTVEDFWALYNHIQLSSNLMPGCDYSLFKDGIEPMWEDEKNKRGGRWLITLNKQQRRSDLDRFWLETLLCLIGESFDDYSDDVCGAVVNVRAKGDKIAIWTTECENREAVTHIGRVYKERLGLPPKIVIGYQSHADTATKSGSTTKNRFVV

| Fp (ratio to Z) [1] | IC50 [2, 4] [µM] | IC50 [3, 5] [µM] | IC50 [2, 6] [µM] | IC50 [3, 7] [µM] | IC50 [2, 8] [µM] | IC50 [3, 9] [µM] | Compound |
| --- | --- | --- | --- | --- | --- | --- | --- |
| 0.86 | 11 | 7 |  |  |  |  | COc1ccc(-c2csc(NN=C(Cc3ccccc3[N+](=O)[O-])C(=O)O)n2)cc1 [EK-B2] |
| 1 |  |  | 3.5 | 11.7 |  |  | COc1ccc(-c2sc(N/N=C(/Cc3ccccc3[N+](=O)[O-])C(=O)O)nc2-c2ccc(-c3ccccc3)cc2)cc1 [KY-577S, 2-{[4-Biphenyl-4-yl-5-(4-methoxy-phenyl)-thiazol-2-yl]-hydrazono}-3-(2-nitro-phenyl)-propionic acid] |
| 1.05 | < 1 | < 1 |  |  |  |  | O=C(O)/C(Cc1ccccc1[N+](=O)[O-])=N/Nc1nc2c(s1)CCc1cc(Cl)c(Cl)cc1-2 [PC-159F, 2-(2-(7,8-dichloro-4,5-dihydronaphtho[1,2-d]thiazol-2-yl)hydrazono)-3-(2-nitrophenyl)propanoic acid] |
| 2 |  |  | < 0.54 | < 0.54 |  |  | COc1ccc(-c2nc(N/N=C(\Cc3ccccc3[N+](=O)[O-])C(=O)O)sc2-c2ccc(-c3ccccc3)cc2)cc1 [KY-435-S] |
| 0.83 |  | 13 | 10 |  |  |  | O=C(O)/C(=N\Nc1nc(-c2ccc(Cl)c(Cl)c2)cs1)c1ccccc1[N+](=O)[O-] [KY-782-Z, (Z)-2-(2-(4-(3,4-dichlorophenyl)thiazol-2-yl)hydrazono)-2-(2-nitrophenyl)acetic acid] |
| 0.82 |  |  | 12.8 | > 20 |  |  | CCOc1ccc(-c2nc(N/N=C(/Cc3ccccc3[N+](=O)[O-])C(=O)O)sc2-c2ccc(OC)cc2)cc1 [KY-576S] |
| 1.04 | 18.6 |  |  | > 20 | 18.6 |  | [N-]=[N+]=NCCCOc1ccc(-c2csc(N/N=C(/Cc3ccccc3[N+](=O)[O-])C(=O)O)n2)cc1 [KH-167f] |
| 2.4 | 3 ± 0.5 | 16 ± 4.9 |  |  |  |  | COc1ccc(-c2nc(NN=C(Cc3ccccc3[N+](=O)[O-])C(=O)O)sc2-c2ccc(Cl)c(Cl)c2)cc1 [KY-371A11-B1] |
| 0.55 | 3.5 | 0.54 |  |  |  |  | COC(=O)C1CN(c2nc(-c3ccc(Cl)c(Cl)c3)cs2)CCN1c1ccccc1[N+](=O)[O-] (stereo not drawn) [RYF-273] |
| 1 | 13 ± 0.82 | > 20 |  |  |  |  | COc1ccc(-c2cn(-c3ccc(-c4sc(NN=C(Cc5ccccc5[N+](=O)[O-])C(=O)O)nc4-c4ccc(OC)cc4)cc3)nn2)cc1 [KY-445] |
| 1 |  |  | 0.1 | 0.7 |  |  | COc1ccc(-c2sc(N/N=C(/Cc3ccccc3[N+](=O)[O-])C(=O)O)nc2-c2ccc(-c3ccccc3)cc2)cc1 [KY-577SF, 2-{[4-Biphenyl-4-yl-5-(4-methoxy-phenyl)-thiazol-2-yl]-hydrazono}-3-(2-nitro-phenyl)-propionic acid] |
| 1.29 | 16 | > 20 |  |  | 16 |  | [N-]=[N+]=NCCCCCOc1ccc(-c2csc(N/N=C(/Cc3ccccc3[N+](=O)[O-])C(=O)O)n2)cc1 [KH-168S] |
| 0.65 | 3 | 3.5 |  |  |  |  | O=C(O)/C(Cc1ccccc1)=N/Nc1nc(-c2ccc(Cl)c(Cl)c2)cs1 [KY-706bc] |
| 1.1 | 1 | 3 |  |  |  |  | O=C(O)/C(Cc1ccc(C(F)(F)F)cc1)=N/Nc1nc(-c2ccc(Cl)c(Cl)c2)cs1 [KY-680] |
| 0.7 | 2.8 | 4.5 |  |  |  |  | COc1ccc(-c2sc(N/N=C(/Cc3ccccc3[N+](=O)[O-])C(=O)O)nc2-c2ccc(Cl)c(Cl)c2)cc1 [KY-600] |
| 1.1 | 3 ± 0.18 | > 20 |  |  |  |  | COc1ccc(-c2nc(NN=C(Cc3ccccc3[N+](=O)[O-])C(=O)O)sc2-c2ccc(Cl)cc2)cc1 [KY-355PR] |
| 0.6 | 2.5 | 9 |  |  |  |  | O=C(O)c1nn(-c2nc(-c3ccccc3)cs2)c2ccc([N+](=O)[O-])cc12 [RYF-292] |

| Fp (ratio to Z) [1] | IC50 [2, 4] [µM] | IC50 [3, 5] [µM] | IC50 [2, 6] [µM] | IC50 [3, 7] [µM] | IC50 [2, 8] [µM] | IC50 [3, 9] [µM] | Compound |
| --- | --- | --- | --- | --- | --- | --- | --- |
| 1 | > 20 | > 20 |  |  |  |  | O=C(O)C(Cc1ccccc1[N+](=O)[O-])=NNc1nc(-c2ccccc2)c(-c2ccc(Cl)cc2)s1 [KY-349PR] |
| 4 | > 20 | > 20 |  |  |  |  | O=C(O)/C(=N\Nc1nc(-c2ccc(Cl)c(Cl)c2)cs1)c1c[nH]c2ccccc12 [KY-689, {[4-(3,4-Dichloro-phenyl)-thiazol-2-yl]-hydrazono}-(1H-indol-3-yl)-acetic acid] |
| 0.94 |  |  | 2.2 | 10 |  |  | O=C(O)C(=NNc1nc(-c2ccc(Cl)c(Cl)c2)cs1)c1ccccc1[N+](=O)[O-] (stereo in doubt) [KY-782-E, (E)-2-(2-(4-(3,4-dichlorophenyl)thiazol-2-yl)hydrazono)-2-(2-nitrophenyl)acetic acid] |
| 1 | 5 | 15 |  |  |  |  | O=C(O)/C(Cc1ccc([N+](=O)[O-])cc1)=N\Nc1nc(-c2ccc(Cl)c(Cl)c2)cs1 [KY-755-p] |
| 0.7 | > 20 | > 20 |  |  |  |  | COc1ccc(-c2nc(N/N=C(\Cc3ccccc3[N+](=O)[O-])C(=O)O)sc2-c2cccc(-n3cc(CO)nn3)c2)cc1 [KY-467F] |
| 1.2 | 3 ± 0.2 | 1.2 ± 0.04 |  |  |  |  | COc1ccc(-c2nc(NN=C(Cc3ccccc3[N+](=O)[O-])C(=O)O)sc2-c2ccc(N=[N+]=[N-])cc2)cc1 [KY-379S] |
| 0.7 | > 20 | > 20 |  |  |  |  | COc1ccc(-c2nc(NN=C(Cc3ccccc3[N+](=O)[O-])C(=O)O)sc2-c2ccc(Cl)cc2)cc1OC [KY-353PR] |
| 0.67 |  |  | 1 | 0.6 |  |  | COc1ccc(-c2nc(NN=C(Cc3ccccc3[N+](=O)[O-])C(=O)O)sc2-c2ccc(OC)cc2)cc1 [KY-323A] |
| 0.69 |  |  | 20.5 | 18 |  |  | O=C(O)C(Cc1ccccc1[N+](=O)[O-])=NNc1nc(-c2cc(Br)cc(Br)c2O)cs1 [KH-102BIIs] |
| 0.85 | 7.5 | 13.5 |  |  |  |  | O=C(O)/C(Cc1c[nH]c2ccccc12)=N\Nc1nc(-c2ccc(Cl)c(Cl)c2)cs1 [KY-753, (Z/E)-2-(2-(4-(3,4-dichlorophenyl)thiazol-2-yl)hydrazono)-3-(1H-indol-3-yl)propanoic acid] |
| 0.92 | 14.5 | 0.8 |  |  | 16.5 | 0.8 | [N-]=[N+]=NCCCOc1ccccc1-c1csc(N/N=C(/Cc2ccccc2[N+](=O)[O-])C(=O)O)n1 [KH-170] |
| 0.5 |  |  | 3 ± 0.56 | 2.8 ± 0.73 |  |  | COc1ccc(-c2nc(N/N=C(\Cc3ccccc3[N+](=O)[O-])C(=O)O)sc2-c2ccc(-c3ccccc3)cc2)cc1 [KY-435-F] |
| 1.05 | 12.6 | 12 |  |  | 12.5 | 11 | [N-]=[N+]=NCCCCOc1ccc(-c2csc(NN=C(Cc3ccccc3[N+](=O)[O-])C(=O)O)n2)cc1 [KH-113s] |
| 0.62 | 6.2 | 15.5 |  |  |  |  | COc1ccc(-c2sc(N/N=C(\Cc3ccccc3[N+](=O)[O-])C(=O)O)nc2-c2ccc(SC)cc2)cc1 [KY-611-pri-S] |
| 1.3 | 3 | 8.7 |  |  |  |  | COc1ccc(-c2sc(N/N=C(/Cc3ccccc3[N+](=O)[O-])C(=O)O)nc2-c2ccc(OC(C)C)cc2)cc1 [KY-599S] |
| 1.2 | 5 ± 1.74 | 4 ± 0.51 |  |  |  |  | COc1ccc(-c2nc(NN=C(Cc3ccccc3[N+](=O)[O-])C(=O)O)sc2-c2ccc(OC)c(OC)c2)cc1 [KY-341PRI] |
| 1 | > 20 | > 20 |  |  |  |  | [N-]=[N+]=NC/C(=N\Nc1nc(-c2ccc(Cl)c(Cl)c2)cs1)C(=O)O [KY-757-p, (E)-3-azido-2-(2-(4-(3,4-dichlorophenyl)thiazol-2-yl)hydrazono) propanoic acid] |
